Measured values taken from US10617690B2 (priority 2015, dated 2020).

Tests used:
[1] = target: T1, JAK3 (Homo sapiens, UniProt P52333); assay: In vitro activity test of JAK3 kinase (LANCE Ultra TR-FRET); assay type: biochemical;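 further: recombinant human JAK3 phosphorylating ULight-JAK-1(Tyr1023) peptide at 4 µM ATP, with 1% DMSO, detected by Eu-anti-phosphotyrosine TR-FRET on Envision and converted to percent inhibition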
T1 construct: purchased Life technology
T1 sequence (P52333 1-1124): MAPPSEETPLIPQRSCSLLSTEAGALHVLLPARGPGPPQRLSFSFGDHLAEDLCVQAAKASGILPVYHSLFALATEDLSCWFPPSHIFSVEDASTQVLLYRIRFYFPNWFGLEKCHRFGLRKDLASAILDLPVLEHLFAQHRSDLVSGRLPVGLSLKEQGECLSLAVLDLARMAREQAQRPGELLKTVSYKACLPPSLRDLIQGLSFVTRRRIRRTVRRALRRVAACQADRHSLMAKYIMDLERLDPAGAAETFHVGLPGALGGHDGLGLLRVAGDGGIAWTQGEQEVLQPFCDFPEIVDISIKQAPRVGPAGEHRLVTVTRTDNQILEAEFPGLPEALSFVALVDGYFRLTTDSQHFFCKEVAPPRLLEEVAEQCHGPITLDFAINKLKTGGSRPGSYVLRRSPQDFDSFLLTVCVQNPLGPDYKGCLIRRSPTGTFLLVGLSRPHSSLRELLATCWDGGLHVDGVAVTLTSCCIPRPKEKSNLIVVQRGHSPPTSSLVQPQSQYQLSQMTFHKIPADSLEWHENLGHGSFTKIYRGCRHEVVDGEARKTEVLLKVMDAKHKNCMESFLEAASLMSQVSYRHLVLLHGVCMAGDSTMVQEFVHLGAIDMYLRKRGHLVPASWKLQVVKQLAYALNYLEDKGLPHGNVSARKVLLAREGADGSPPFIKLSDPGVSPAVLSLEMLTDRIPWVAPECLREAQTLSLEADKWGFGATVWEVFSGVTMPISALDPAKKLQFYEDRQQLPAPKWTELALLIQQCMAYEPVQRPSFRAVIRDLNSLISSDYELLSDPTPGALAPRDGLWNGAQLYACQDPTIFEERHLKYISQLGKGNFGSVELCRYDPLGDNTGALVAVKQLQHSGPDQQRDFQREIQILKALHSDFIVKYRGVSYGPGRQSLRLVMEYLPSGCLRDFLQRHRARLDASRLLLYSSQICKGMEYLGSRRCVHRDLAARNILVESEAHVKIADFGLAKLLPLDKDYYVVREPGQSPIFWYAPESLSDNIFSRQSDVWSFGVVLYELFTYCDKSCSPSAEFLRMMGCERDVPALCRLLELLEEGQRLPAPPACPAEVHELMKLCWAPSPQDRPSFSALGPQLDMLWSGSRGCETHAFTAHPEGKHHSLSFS
Procedure: (§1) Recombinant humanized JAK1, JAK2 and JAK3 protease were all purchased from Life technology. LANCE Ultra ULight™-JAK-1(Tyr1023) peptide and LANCE Eu-W1024 Anti-phosphotyrosine (PT66) were both purchased from PerkinElmer. Envision (PerkinElmer) was used to read a plate.
0.05 nM protein kinase, 50 nM LANCE Ultra ULight™-JAK-1(Tyr1023) peptide, 4 uM ATP, 50 mM HEPES (pH7.5), 10 mM MgCl2, 1 mM EGTA, 2 mM DTT, and 0.01% BRIJ-35.
(§2) The reading was converted into a suppression ratio as follow equation: (%)=(Min−Ratio)/(Max−Min)*100%.

[2] = target: JAK2 protein kinase (Homo sapiens, UniProt O60674); assay: biochemical; settings: 12 uM ATP, 60 min;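 further: recombinant human JAK2 with ULight-labelled JAK-1(Tyr1023) peptide substrate, phosphorylation detected by TR-FRET using Eu-labelled anti-phosphotyrosine antibody, 1% DMSO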
From the text: as §1, §2

[3] = target: JAK1 protein kinase (Homo sapiens, UniProt P23458); assay: biochemical; settings: 38 uM ATP, 90 min
Procedure: In Vitro Activity Test of Jak1, Jak 2 and Jak 3 Kinase
Recombinant humanized JAK1, JAK2 and JAK3 […] were all purchased from Life technology. LANCE Ultra ULight™-JAK-1(Tyr1023) peptide and LANCE Eu-W1024 Anti-phosphotyrosine (PT66) were both purchased from PerkinElmer. Envision (PerkinElmer) was used to read a plate.
Three dilution of a test compound was prepared, and 11 final concentrations were obtained: 10 uM to 0.17 nM. Each concentration had two repeat wells. The content of DMSO in a detection reaction was 1%.
2 nM JAK1 protein kinase, 50 nM LANCE Ultra ULight™-JAK-1(Tyr1023) peptide, 38 uM ATP, 50 mM HEPES (pH7.5), 10 mM MgCl2, 1 mM EGTA, 2 mM DTT, and 0.01% BRIJ-35. Detection plate was White Proxiplate 384-Plus plate (PerkinElmer), the reaction was conducted for 90 min at room temperature, and reaction system was 10 ul.
10 ul detection reagent was added into the reaction plate, wherein the final concentration of LANCE Eu-W1024 Anti-phosphotyrosine (PT66) was 2 nM, the final concentration of EDTA was 10 mM, incubation was conducted for 60 min at room temperature, and the plate was read by the Envision.
The reading was converted into a suppression ratio as follow equation: (%)=([…])/(Max−Min)*100%. IC50 data was detected by 4 parametric curve fitting (Model 205 in XLFIT5, iDBS), see Table 1.

JAK1 protein kinase, sequence (P23458 whole entry): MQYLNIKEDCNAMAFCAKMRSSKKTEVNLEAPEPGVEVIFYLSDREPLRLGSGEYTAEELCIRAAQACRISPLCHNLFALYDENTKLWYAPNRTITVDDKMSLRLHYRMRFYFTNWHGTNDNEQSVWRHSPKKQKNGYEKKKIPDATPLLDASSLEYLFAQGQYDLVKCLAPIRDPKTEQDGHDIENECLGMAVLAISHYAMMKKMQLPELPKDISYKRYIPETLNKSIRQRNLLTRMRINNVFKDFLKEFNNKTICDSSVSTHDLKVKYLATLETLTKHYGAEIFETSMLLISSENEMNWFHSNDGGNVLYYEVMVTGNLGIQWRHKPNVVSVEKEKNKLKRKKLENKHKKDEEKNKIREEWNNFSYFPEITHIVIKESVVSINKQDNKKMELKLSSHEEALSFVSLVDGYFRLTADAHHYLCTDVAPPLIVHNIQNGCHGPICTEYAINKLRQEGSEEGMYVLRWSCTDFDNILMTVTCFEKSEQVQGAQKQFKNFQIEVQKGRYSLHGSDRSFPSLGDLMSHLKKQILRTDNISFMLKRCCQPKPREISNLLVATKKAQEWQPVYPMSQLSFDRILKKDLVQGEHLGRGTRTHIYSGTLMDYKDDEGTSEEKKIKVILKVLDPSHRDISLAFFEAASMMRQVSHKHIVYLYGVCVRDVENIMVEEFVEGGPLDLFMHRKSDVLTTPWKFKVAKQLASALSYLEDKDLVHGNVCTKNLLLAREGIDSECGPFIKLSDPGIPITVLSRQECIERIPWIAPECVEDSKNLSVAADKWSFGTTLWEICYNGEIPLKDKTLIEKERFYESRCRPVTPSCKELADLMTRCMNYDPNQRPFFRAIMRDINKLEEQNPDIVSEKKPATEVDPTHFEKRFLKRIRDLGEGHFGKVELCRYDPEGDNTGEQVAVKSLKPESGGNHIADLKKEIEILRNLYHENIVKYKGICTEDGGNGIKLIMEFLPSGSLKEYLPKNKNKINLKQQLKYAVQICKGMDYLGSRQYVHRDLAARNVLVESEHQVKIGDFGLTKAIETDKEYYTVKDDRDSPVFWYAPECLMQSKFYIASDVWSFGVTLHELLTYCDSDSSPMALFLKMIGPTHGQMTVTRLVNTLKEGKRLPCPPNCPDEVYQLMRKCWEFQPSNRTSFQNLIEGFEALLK
JAK2 protein kinase, sequence (O60674 whole entry): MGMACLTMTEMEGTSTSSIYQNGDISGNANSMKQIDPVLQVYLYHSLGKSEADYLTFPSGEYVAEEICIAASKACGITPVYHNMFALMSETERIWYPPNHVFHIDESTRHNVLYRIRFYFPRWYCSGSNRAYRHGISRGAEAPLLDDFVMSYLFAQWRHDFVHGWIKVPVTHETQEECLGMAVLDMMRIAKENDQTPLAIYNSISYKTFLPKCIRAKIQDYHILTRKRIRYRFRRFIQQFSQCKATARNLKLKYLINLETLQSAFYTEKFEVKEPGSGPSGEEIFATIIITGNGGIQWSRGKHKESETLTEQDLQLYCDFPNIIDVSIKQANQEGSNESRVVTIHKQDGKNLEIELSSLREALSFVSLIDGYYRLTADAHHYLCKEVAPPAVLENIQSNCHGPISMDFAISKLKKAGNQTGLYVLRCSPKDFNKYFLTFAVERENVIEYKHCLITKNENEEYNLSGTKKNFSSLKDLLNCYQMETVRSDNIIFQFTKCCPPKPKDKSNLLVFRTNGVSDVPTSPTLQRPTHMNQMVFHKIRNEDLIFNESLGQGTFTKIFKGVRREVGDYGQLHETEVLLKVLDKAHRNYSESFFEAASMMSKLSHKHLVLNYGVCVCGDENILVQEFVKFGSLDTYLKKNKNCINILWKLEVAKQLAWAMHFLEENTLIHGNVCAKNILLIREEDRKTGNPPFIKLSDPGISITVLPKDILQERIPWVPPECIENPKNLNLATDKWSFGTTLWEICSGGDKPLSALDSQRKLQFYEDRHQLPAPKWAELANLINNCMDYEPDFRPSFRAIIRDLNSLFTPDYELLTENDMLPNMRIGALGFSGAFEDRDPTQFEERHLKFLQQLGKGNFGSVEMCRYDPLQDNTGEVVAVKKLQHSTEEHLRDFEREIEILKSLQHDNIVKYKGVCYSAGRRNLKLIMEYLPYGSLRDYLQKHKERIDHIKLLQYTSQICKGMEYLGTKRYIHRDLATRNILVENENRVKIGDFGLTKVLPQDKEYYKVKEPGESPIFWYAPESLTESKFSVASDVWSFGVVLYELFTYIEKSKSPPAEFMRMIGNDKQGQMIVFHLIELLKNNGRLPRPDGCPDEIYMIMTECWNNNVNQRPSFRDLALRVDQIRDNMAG

IC50 [1]	IC50 [2]	IC50 [3]	SMILES
0.1 to 1 µM	> 1 µM	0.1 to 1 µM	CN(c1ncnc2[nH]ccc12)N1CCCC(NC(=O)CC#N)C1 (stereo not shown) [WX12]
0.1 to 1 µM	> 1 µM	0.1 to 1 µM	CN(c1ncnc2[nH]ccc12)N1CCCC(NC(=O)CC(F)(F)F)C1 (stereo not shown) [WX13, 3,3,3-trifluoroethyl-N-(1-(methyl(7H-pyrrolo[2,3-d]pyrimidin-4-yl)amino)piperidyl-3-)propylcarboxamide]
> 1 µM	> 1 µM	> 1 µM	CN(c1ncnc2[nH]ccc12)N1CCCC(C)(C(=O)NCC(F)(F)F)C1 (stereo not shown) [WX38, 3-methyl-11-(methyl(7H-pyrrolo[2,3-d]pyrimidine-4-yl)amino)-N-(2,2,2-trifluoroethyl)piperidyl-3-formamide]
0.1 to 1 µM	0.1 to 1 µM	0.01 to 0.1 µM	CN(c1ncnc2[nH]ccc12)N1CCCC(CNC(=O)CC#N)C1 (stereo not shown) [WX45]
> 1 µM	> 1 µM	0.1 to 1 µM	O=C(NCC(F)(F)F)C1CCC2(CC1)CCN(Nc1ncnc3[nH]ccc13)CC2 [WX59]
0.1 to 1 µM	> 1 µM	0.1 to 1 µM	CN(c1ncnc2[nH]ccc12)N1CCCC(CC(=O)NCC#N)C1 (stereo not shown) [WX18]
0.01 to 0.1 µM	> 1 µM	< 0.01 µM	CN(c1ncnc2[nH]ccc12)N1CCCC(C(=O)NC2CC(F)(F)C2)C1 (stereo not shown) [WX56]
> 1 µM	> 1 µM	0.1 to 1 µM	N#CCC(=O)N1CC2CCN(Nc3ncnc4[nH]ccc34)CC2C1 (stereo not shown) [WX55, 3-[5-(7H-pyrrolo[2,3-d]pyrimidin-4-ylamino)-hexahydro-1H-pyrrolo[3,4-c]pyridin-2-yl]3-oxopropanenitrile]
0.01 to 0.1 µM	0.1 to 1 µM	0.01 to 0.1 µM	CN(c1ncnc2[nH]ccc12)N1CCC(C(=O)NCC#N)CC1 [WX20, N-(cyanomethyl)-1-(methyl(7H-pyrrolo[2,3-d]pyrimidin-4-yl)amino)piperidyl-4-formamide]
0.01 to 0.1 µM	0.1 to 1 µM	0.01 to 0.1 µM	COCNC(=O)C1CCCN(N(C)c2ncnc3[nH]ccc23)C1 (stereo not shown) [WX42]
0.1 to 1 µM	> 1 µM	0.1 to 1 µM	CC1CCC(C(=O)NCC#N)CN1N(C)c1ncnc2[nH]ccc12 (stereo not shown) [WX26, N-(cyanomethyl)-6-methyl-1-[methyl(7H-pyrrolo[2,3-d]pyrimidin-4-yl)amino]piperidyl-3-formamide]
0.1 to 1 µM	0.1 to 1 µM	0.01 to 0.1 µM	O=C(NCC(F)(F)F)C1CCCN(N(c2ncnc3[nH]ccc23)C2CC2)C1 (stereo not shown) [WX58, 1-[cyclopropyl(7H-pyrrolo[2,3-d]pyrimidin-4-yl)amino]-N-(2,2,2-trifluoroethyl)piperidyl-3-formamide]
0.1 to 1 µM	0.1 to 1 µM	0.01 to 0.1 µM	CN(c1ncnc2[nH]ccc12)N1CCC(NC(=O)CC#N)CC1 [WX25, 2-cyano-N-(1-(methyl(7H-pyrrolo[2,3-d]pyrimidin-4-yl)amino)piperidin-4-yl)acetamide]
0.01 to 0.1 µM	0.1 to 1 µM	0.01 to 0.1 µM	CN(CC(F)(F)F)C(=O)C1CCCN(N(C)c2ncnc3[nH]ccc23)C1 (stereo not shown) [WX02, N-methyl-1-(methyl(7H-pyrrolo[2,3-d]pyrimidin-4-yl)amino)-(2,2,2-trifluoroethyl)piperidyl-3-formamide]
	0.1 to 1 µM	0.01 to 0.1 µM	CN(c1ncnc2[nH]ccc12)N1CCC(C(=O)NCC(F)(F)F)C1 (single isomer, unassigned) [WX33, (S or R)-1-[methyl(7H-pyrrolo[2,3-d]pyrimidin-4-yl)amino]-N-(2,2,2-trifluoroethyl)pyrrolidyl-3-formamide]
0.01 to 0.1 µM	0.01 to 0.1 µM	0.01 to 0.1 µM	CN(c1ncnc2[nH]ccc12)N1CCCC(c2ncc(C(F)(F)F)[nH]2)C1 (stereo not shown) [WX57, N-methyl-N-[3-[5-trifluoromethyl-1H-imidazol-2-yl]-1-piperidinyl]-7H-pyrrolo[2,3-d]pyrimidine-4-amine]
0.1 to 1 µM	0.1 to 1 µM	0.01 to 0.1 µM	CN(c1ncnc2[nH]ccc12)N1CCOC(C(=O)NCC(F)(F)F)C1 (stereo not shown) [WX41, 4-(methyl(7H-pyrrolo[2,3-d]pyrimidin-4-yl)amino)-N-(2,2,2-trifluoroethyl)morpholine-2-formamide]
0.01 to 0.1 µM	0.01 to 0.1 µM	< 0.01 µM	N#CCNC(=O)C1CCCN(Nc2ncnc3[nH]ccc23)C1 (stereo not shown) [WX03, N-(cyanomethyl)-1-(7H-pyrrolo[2,3-d]pyrimidin-4-yl-amino)piperidyl-3-formamide]
0.1 to 1 µM	0.1 to 1 µM	0.01 to 0.1 µM	CN(c1ncnc2[nH]ccc12)N1CCCC(C(=O)Nc2cccc(C(F)(F)F)c2)C1 (stereo not shown) [WX53, 1-[methyl(7H-pyrrolo[2,3-d]pyrimidin-4-yl)amino]-N-[3-(trifluoromethyl)phenyl]piperidyl-3-formamide]
0.01 to 0.1 µM	0.01 to 0.1 µM	≤ 0.01 µM	CN(c1ncnc2[nH]ccc12)N1CCCC(C(=O)NCC(F)(F)C(F)(F)F)C1 (stereo not shown) [WX46, 1-[methyl(7H-pyrrole[2,3-d]pyrimidine-4-)amino]-N-(2,2,3,3,3-pentafluoropropyl)piperidyl-3-formamide]
< 0.01 µM	0.01 to 0.1 µM	≤ 0.01 µM	CN(c1ncnc2[nH]ccc12)N1CCCC(C(=O)NCC(F)F)C1 (stereo not shown) [WX47, 1-[methyl(7H-pyrrole[2,3-d]pyrimidine-4-)amino]-N-(2,2-difluoroethyl)piperidyl-3-formamide]
0.1 to 1 µM	0.1 to 1 µM	0.01 to 0.1 µM	CN(c1ncnc2[nH]ccc12)N1CCC(NC(=O)CC(F)(F)F)CC1 [WX24]
0.1 to 1 µM	> 1 µM	0.1 to 1 µM	CN(c1ncnc2[nH]ccc12)N1CCCC(CC(=O)NCC(F)(F)F)C1 (stereo not shown) [WX17]
0.01 to 0.1 µM	< 0.01 µM	< 0.01 µM	CN(c1ncnc2[nH]ccc12)N1CCC(C(=O)NCC(F)(F)F)C1 (single isomer, unassigned) [WX32, (R or S)-1-[methyl(7H-pyrrolo[2,3-d]pyrimidin-4-yl)amino]-N-(2,2,2-trifluoroethyl) pyrrolidyl-3-formamide]
0.1 to 1 µM	> 1 µM	> 1 µM	CN(c1ncnc2[nH]ccc12)N1CCCC(N2CCCC2=O)C1 (stereo not shown) [WX29, 1-[1-[methyl(7H-pyrrolo[2,3-d]pyrimidin-4-yl)amino]-3-piperidinyl]pyrrolid-2-one]
> 1 µM	> 1 µM	> 1 µM	CC1CCC2CN1N(c1ncnc3[nH]ccc13)C2=O (stereo not shown) [WX28, 2-methyl-7-(7H-pyrrolo[2,3-d]pyrimidin-4-yl)-1,7-diazabicyclo[3.2.1]octan-6-one]
0.1 to 1 µM	> 1 µM	0.1 to 1 µM	CN(c1ncnc2[nH]ccc12)N1CCCC(CNC(=O)CC(F)(F)F)C1 (stereo not shown) [WX19, 3,3,3-trifluoro-N-((1-(methyl(7H-pyrrole[2,3-d]pyrimidine-4-)amino)piperidyl-3-)methyl)propionamide]
0.1 to 1 µM		0.01 to 0.1 µM	CN(c1ncnc2[nH]ccc12)N1CCCC(C(=O)NCCC#N)C1 (stereo not shown) [WX16, N-(cyanoethyl)-1-(methyl(1H-pyrrole[2,3-d]pyridyl-4-)amino)piperidyl-3-formamide]
